Laboratory results: patent US6339042B1, “Herbicidal N-cyclohexadienyl heteroaryloxyacetamides” (American Cyanamid Co., priority 1999, dated 2002)

Experiments:
Settings in all cases: three weeks after treatment
Amaranthus tuberculatus [1] = test: Pre-emergence herbicidal evaluation, AMATA; assay type: in vivo
Text: (§1) The treated pots are then placed on greenhouse benches, watered and cared for in accordance with conventional greenhouse procedures.

Alopecurus myosuroides [2] = test: Pre-emergence herbicidal evaluation, ALOMY; assay type: in vivo
Text: as §1

Apera spica venti [3] = test: Pre-emergence herbicidal evaluation, APESV; assay type: in vivo
Text: as §1

Echinochloa crus-galli [4] = test: Pre-emergence herbicidal evaluation, ECHCG; assay type: in vivo
Text: as §1

Setaria viridis [5] = test: Pre-emergence herbicidal evaluation, SETVI; assay type: in vivo
Text: as §1

Lolium perenne [6] = test: Pre-emergence herbicidal evaluation, LOLPE; assay type: in vivo
Text: as §1

Triticum aestivum [7] = test: Pre-emergence herbicidal evaluation, TRZAW; assay type: in vivo
Text: as §1

Hordeum vulgare [8] = test: Pre-emergence herbicidal evaluation, HORVW; assay type: in vivo
Text: as §1

Zea mays [9] = test: Pre-emergence herbicidal evaluation, ZEAMX; assay type: in vivo
Text: as §1

Glycine max [10] = test: Pre-emergence herbicidal evaluation, GLXMA; assay type: in vivo
Text: as §1

Oryza sativum [11] = test: Pre-emergence herbicidal evaluation, ORYSA; assay type: in vivo
Text: as §1

Amaranthus tuberculatus [12] = test: Post-emergence herbicidal evaluation, AMATA; assay type: in vivo
Galium aparine = test: Post-emergence herbicidal evaluation, GALAP
Protocol: (§2) The compounds of the invention are tested for pre- and post-emergence herbicidal activity.
(§3) Each pot is examined three weeks after treatment and phytotoxicity is assessed according to the rating system set forth below.
(§4) These acetone solutions are diluted with water and the resulting formulations applied at dosage levels equivalent of about 0.4 to 0.1 kg per hectare of test compound per pot. After spraying the plants are placed on greenhouse benches and are cared for in the usual manner, commensurate with conventional greenhouse practices.

Alopecurus myosuroides [13] = test: Post-emergence herbicidal evaluation, ALOMY
Protocol: as §2, §3, §4

Apera spica venti [14] = test: Post-emergence herbicidal evaluation, APESV
Protocol: as §2, §3, §4

Echinochloa crus-galli [15] = test: Post-emergence herbicidal evaluation, ECHCG
Setaria viridis [16] = test: Post-emergence herbicidal evaluation, SETVI
Protocol: as §2, §3, §4

Lolium perenne [17] = test: Post-emergence herbicidal evaluation, LOLPE
Triticum aestivum [18] = test: Post-emergence herbicidal evaluation, TRZAW
Protocol: as §3, §4

Hordeum vulgare [19] = test: Post-emergence herbicidal evaluation, HORVW
Protocol: as §3, §4

Zea mays [20] = test: Post-emergence herbicidal evaluation, ZEAMX
Glycine max [21] = test: Post-emergence herbicidal evaluation, GLXMA
Oryza sativum [22] = test: Post-emergence herbicidal evaluation, ORYSA

CC1=CC(N(C)C(=O)COc2nnc(C(F)(F)C(F)(F)F)s2)=CC(C)(C)C1 [Example 7]
2 (2 - Slight effect): phytotoxicity rating ALOMY (Alopecurus myosuroides [2]; 0.200 kg/ha) | phytotoxicity rating SETVI (Setaria viridis [5]; 0.800 kg/ha) | phytotoxicity rating ORYSA (Oryza sativum [11]; 0.800 kg/ha) | phytotoxicity rating APESV (Apera spica venti [14]; 0.400 kg/ha) | phytotoxicity rating GLXMA (Glycine max [21]; 0.100 kg/ha) | phytotoxicity rating GLXMA (Glycine max [21]; 0.200 kg/ha)
1 (1 - Trace effect): phytotoxicity rating HORVW (Hordeum vulgare [8]; 0.400 kg/ha) | phytotoxicity rating HORVW (Hordeum vulgare [8]; 0.800 kg/ha) | phytotoxicity rating ZEAMX (Zea mays [9]; 0.800 kg/ha)
6 (6 - Herbicidal effect): phytotoxicity rating ECHCG (Echinochloa crus-galli [4]; 0.400 kg/ha) | phytotoxicity rating LOLPE (Lolium perenne [17]; 0.200 kg/ha) | phytotoxicity rating LOLPE (Lolium perenne [17]; 0.400 kg/ha)
0 (0 - No effect): phytotoxicity rating AMATA (Amaranthus tuberculatus [1]; 0.100 kg/ha) | phytotoxicity rating AMATA (Amaranthus tuberculatus [1]; 0.200 kg/ha) | phytotoxicity rating ALOMY (Alopecurus myosuroides [2]; 0.100 kg/ha) | phytotoxicity rating APESV (Apera spica venti [3]; 0.200 kg/ha) | phytotoxicity rating APESV (Apera spica venti [3]; 0.400 kg/ha) | phytotoxicity rating ECHCG (Echinochloa crus-galli [4]; 0.100 kg/ha) | phytotoxicity rating ECHCG (Echinochloa crus-galli [4]; 0.200 kg/ha) | phytotoxicity rating SETVI (Setaria viridis [5]; 0.100 kg/ha) | phytotoxicity rating SETVI (Setaria viridis [5]; 0.200 kg/ha) | phytotoxicity rating SETVI (Setaria viridis [5]; 0.400 kg/ha) | phytotoxicity rating LOLPE (Lolium perenne [6]; 0.100 kg/ha) | phytotoxicity rating LOLPE (Lolium perenne [6]; 0.200 kg/ha) | phytotoxicity rating TRZAW (Triticum aestivum [7]; 0.100 kg/ha) | phytotoxicity rating TRZAW (Triticum aestivum [7]; 0.200 kg/ha) | phytotoxicity rating TRZAW (Triticum aestivum [7]; 0.400 kg/ha) | phytotoxicity rating TRZAW (Triticum aestivum [7]; 0.800 kg/ha) | phytotoxicity rating HORVW (Hordeum vulgare [8]; 0.100 kg/ha) | phytotoxicity rating HORVW (Hordeum vulgare [8]; 0.200 kg/ha) | phytotoxicity rating ZEAMX (Zea mays [9]; 0.100 kg/ha) | phytotoxicity rating ZEAMX (Zea mays [9]; 0.200 kg/ha) | phytotoxicity rating ZEAMX (Zea mays [9]; 0.400 kg/ha) | phytotoxicity rating GLXMA (Glycine max [10]; 0.100 kg/ha) | phytotoxicity rating GLXMA (Glycine max [10]; 0.200 kg/ha) | phytotoxicity rating GLXMA (Glycine max [10]; 0.400 kg/ha) | phytotoxicity rating GLXMA (Glycine max [10]; 0.800 kg/ha) | phytotoxicity rating ORYSA (Oryza sativum [11]; 0.100 kg/ha) | phytotoxicity rating ORYSA (Oryza sativum [11]; 0.200 kg/ha) | phytotoxicity rating ORYSA (Oryza sativum [11]; 0.400 kg/ha) | phytotoxicity rating GALAP (Galium aparine; 0.100 kg/ha) | phytotoxicity rating ALOMY (Alopecurus myosuroides [13]; 0.100 kg/ha) | phytotoxicity rating ALOMY (Alopecurus myosuroides [13]; 0.200 kg/ha) | phytotoxicity rating APESV (Apera spica venti [14]; 0.100 kg/ha) | phytotoxicity rating APESV (Apera spica venti [14]; 0.200 kg/ha) | phytotoxicity rating ECHCG (Echinochloa crus-galli [15]; 0.100 kg/ha) | phytotoxicity rating ECHCG (Echinochloa crus-galli [15]; 0.200 kg/ha) | phytotoxicity rating ECHCG (Echinochloa crus-galli [15]; 0.400 kg/ha) | phytotoxicity rating SETVI (Setaria viridis [16]; 0.100 kg/ha) | phytotoxicity rating SETVI (Setaria viridis [16]; 0.200 kg/ha) | phytotoxicity rating SETVI (Setaria viridis [16]; 0.400 kg/ha) | phytotoxicity rating LOLPE (Lolium perenne [17]; 0.100 kg/ha) | phytotoxicity rating TRZAW (Triticum aestivum [18]; 0.100 kg/ha) | phytotoxicity rating TRZAW (Triticum aestivum [18]; 0.200 kg/ha) | phytotoxicity rating TRZAW (Triticum aestivum [18]; 0.400 kg/ha) | phytotoxicity rating HORVW (Hordeum vulgare [19]; 0.100 kg/ha) | phytotoxicity rating HORVW (Hordeum vulgare [19]; 0.200 kg/ha) | phytotoxicity rating HORVW (Hordeum vulgare [19]; 0.400 kg/ha) | phytotoxicity rating ZEAMX (Zea mays [20]; 0.100 kg/ha) | phytotoxicity rating ZEAMX (Zea mays [20]; 0.200 kg/ha) | phytotoxicity rating ZEAMX (Zea mays [20]; 0.400 kg/ha) | phytotoxicity rating ORYSA (Oryza sativum [22]; 0.100 kg/ha) | phytotoxicity rating ORYSA (Oryza sativum [22]; 0.200 kg/ha)
4 (4 - Injury): phytotoxicity rating ALOMY (Alopecurus myosuroides [13]; 0.400 kg/ha)
5 (5 - Definite injury): phytotoxicity rating ALOMY (Alopecurus myosuroides [2]; 0.400 kg/ha) | phytotoxicity rating ALOMY (Alopecurus myosuroides [2]; 0.800 kg/ha) | phytotoxicity rating AMATA (Amaranthus tuberculatus [12]; 0.400 kg/ha) | phytotoxicity rating GALAP (Galium aparine; 0.400 kg/ha) | phytotoxicity rating GLXMA (Glycine max [21]; 0.400 kg/ha)
3 (3 - Moderate effect): phytotoxicity rating AMATA (Amaranthus tuberculatus [1]; 0.400 kg/ha) | phytotoxicity rating AMATA (Amaranthus tuberculatus [1]; 0.800 kg/ha) | phytotoxicity rating LOLPE (Lolium perenne [6]; 0.400 kg/ha) | phytotoxicity rating AMATA (Amaranthus tuberculatus [12]; 0.100 kg/ha) | phytotoxicity rating AMATA (Amaranthus tuberculatus [12]; 0.200 kg/ha) | phytotoxicity rating GALAP (Galium aparine; 0.200 kg/ha) | phytotoxicity rating ORYSA (Oryza sativum [22]; 0.400 kg/ha)
7 (7 - Good herbicidal effect): phytotoxicity rating APESV (Apera spica venti [3]; 0.800 kg/ha)
9 (9 - Complete kill): phytotoxicity rating ECHCG (Echinochloa crus-galli [4]; 0.800 kg/ha) | phytotoxicity rating LOLPE (Lolium perenne [6]; 0.800 kg/ha)
